Patent US20110112308A1 (NOVARTIS AG, priority 2006, published 2011)
In brackets after ≈: the same amount, converted by molar mass. One block for each compound: values may come before it.

How the values were obtained:
Type in all cases: physicochemical
[1] = Solubility, 24-hour equilibration at room temperature; settings: organic solvent or mixture, thermodynamic from solid
Procedure: Aqueous Solubility: A carefully weighted amount (20-50 mg) of sample is dissolved in 1 ml of solvent with 24-hour equilibration at room temperature. The solubility was determined either gravimetrically or by UV-VIS spectrometry. The pH of the clear solution was also measured. However, the difficulty of determining salt solubilities in water should be stressed, since upon dissolution dissociation to the free form is possible, which affects both the solubility and the pH. It's not unlikely that attempts to make solutions of a salt at a concentration well below the reported solubility of the salt to be unsuccessful (for a full discussion see: M. Pudipeddi, A. T. M. Serajuddin, D. J. W. Grant, and P. H. Stahl in “Handbook of Pharmaceutical Salts Properties Selection and Use” page 27 and references therein).

[2] = pH of saturated solution or 1% suspension in water; settings: room temperature
Procedure: pH Value: The pH at room temperature of a saturated solution or 1% suspension of the drug substance in water was recorded.

[3] = Intrinsic dissolution rate, rotation disk method; settings: for Intrinsic Dissolution Rate: 37° C., 200 r.p.m.
Procedure: Intrinsic Dissolution: […] […] Pellets of the other salts remained intact for at least several minutes enabling the determination of the intrinsic dissolution rate. Dissolution rate studies were performed using the rotation disk method ([…] Instrument). A single rotation speed of 200 r.p.m. was used to dissolve drug substance into a 500 mL vessel at 37° C. The solution was continuously pumped through a UV cell measurement and returned to the dissolution vessel.

[4] = Solution stability (HPLC); settings: for stability characteristics, in words: both in solution and in the solid state; for Unstressed (% Area): unstressed baseline of the stability study
Procedure: (§1) All samples were prepared/diluted to a concentration of 0.2 mg/mL in methanol prior to analysis by HPLC. A freshly prepared sample of each salt was used as the reference standard for external standard calibration analysis.

Solid-state stability = settings: for Bulk stability (XRPD): 1 week
Procedure: as §1

[5] = Stability of mixtures with excipients; settings: for stability with all excipient mixtures tested, in words: after 2 weeks at 50° C./75% r.h.
Procedure: as §1

[6] = pH of saturated solution or 1% suspension in water; settings: In pH = 6.8 buffer
[7] = Water, free base pellet disintegrated, not true intrinsic rate
[8] = 2 mg/mL in 100 mM lactate buffer, pH 3.5
[9] = 2 mg/mL in methanol, 1 week at 50° C.
[10] = 2 mg/mL in water, 1 week at 50° C.
[11] = 2 mg/mL, 100 mM lactate buffer pH 3.5, 1 week at 50° C., external standard
[12] = 2% in 0.5% HPMC 4000, 1 day at RT
[13] = 2% in 0.5% Klucel HF, 1 day at RT
[14] = 2% in 0.8% Tween 80, 1 day at RT
[15] = 5% solution, 1 day at RT (diluted 1:100 in pH 6.8 buffer)
[16] = Bulk stability, 2 weeks, 50° C.
[17] = Bulk stability, 2 weeks, 50° C./20% water
[18] = Bulk stability, 2 weeks, 50° C./75% r.h.
[19] = Light study, 1200 kLux (300-800 nm)
[20] = Mixture 1: 50% PVP + 50% Crospovidone, 50° C./75% r.h., 2 weeks
[21] = Mixture 2: 50% Starch 1500 + 5% MCC 102, 50° C./75% r.h., 2 weeks
[22] = Mixture 3: 5% PVP + 5% Crospovidone + 10% Starch 1500 + 80% MCC 102, 50° C./75% r.h., 2 weeks
[23] = Mixture 4: 99% Lactose + 1% BHT/BHA, 50° C./75% r.h., 2 weeks
[24] = Mixture 5: 99% Mannitol + 1% BHT/BHA, 50° C./75% r.h., 2 weeks
[25] = Mixture 6: 50% Mannitol + 47% HPCLH21 + 1% BHT/BHA + 2% Magnesium Stearate, 50° C./75% r.h., 2 weeks
[26] = Mixture 7: 50% Cetyl Alcohol + 49% HPCLH21 + 1% Magnesium Stearate, 50° C./75% r.h., 2 weeks
[27] = Mixture 8: 100% PEG 3350, 50° C./75% r.h., 2 weeks
[28] = 2 mg/mL, 100 mM lactate buffer pH 3.5, 1 week at 50° C.

solubility at 24 h ([1]; ethyl acetate, 25 °C): 5600 µg/mL (≈ 16 mM)
solubility at 24 h ([1]; Acetone, approx. at 25° C.): 6500 µg/mL (≈ 18.6 mM)
solubility at 24 h ([1]; Ethanol, approx. at 25° C.): 1500 µg/mL (≈ 4.29 mM)
solubility at 24 h ([1]; Methanol, approx. at 25° C.): 2300 µg/mL (≈ 6.58 mM)
pH of saturated solution [2]: 8.7
Intrinsic Dissolution Rate [3, 7]: 0.15 mg min^−1 cm^−2
pH of initial mixture [4, 8]: 3.60
assay [4, 9]: [100.2]
pH of initial mixture ([4]; 2 mg/mL in water): 9.59
CL (appearance) [4, 10]: A↓
assay [4, 10]: [98.73]
assay [4, 11]: [97.21]
assay ([4]; 2% in 0.5% CMC, 1 day at RT): [98.07]
assay [4, 12]: [100.4]
assay [4, 13]: [99.28]
assay [4, 14]: [98.91]
CL (appearance) [4, 15]: A↓
assay [4, 15]: [100.4]
stability characteristics, in words [4]: very good stability
Unstressed (% Area) [4]: 99.41% Area
Bulk stability (XRPD) (Solid-state stability; 80° C.): Changed to mod. C
Bulk stability (XRPD) (Solid-state stability; 80° C./75% r.h.): no change
assay (Solid-state stability; [16]): [97.76]
assay (Solid-state stability; [17]): [99.48]
assay (Solid-state stability; [18]): [98.61]
CL (appearance) (Solid-state stability; [19]): B (B = slight discoloration)
assay (Solid-state stability; [19]): [99.39]
% DS (drug substance) [5, 20]: 98.8 % area
% DS (drug substance) [5, 21]: 99.4 % area
% DS (drug substance) [5, 22]: 99.3 % area
% DS (drug substance) [5, 23]: 99.4 % area
% DS (drug substance) [5, 24]: 99.2 % area
% DS (drug substance) [5, 25]: 99.4 % area
% DS (drug substance) [5, 26]: 99.5 % area
% DS (drug substance) [5, 27]: 98.6 % area
% DS (drug substance) ([5]; Standard, freshly prepared): 99.5 % area
stability with all excipient mixtures tested, in words [5]: very good stability
pH of saturated solution [6]: 6.91
Compound: Cc1[nH]c2ccccc2c1CCNCc1ccc(/C=C/C(=O)NO)cc1 [Free base, N-hydroxy-3-[4-[[[2-(2-methyl-1H-indol-3-yl)ethyl]amino]methyl]phenyl]-2E-2-propenamide]

pH of saturated solution [2]: 6.07
intrinsic dissolution (rate), in words [3]: good
Intrinsic Dissolution Rate ([3]; HCl 0.1N): 1.16 mg min^−1 cm^−2
Intrinsic Dissolution Rate [3, 7]: 0.38 mg min^−1 cm^−2
pH of initial mixture [4, 8]: 3.58
% DP (total degradation products) [4, 9]: 0.86 % area
CL (appearance) [4, 9]: A↓
assay [4, 9]: [100.5]
pH of initial mixture ([4]; 2 mg/mL in water): 6.82
% DP (total degradation products) [4, 10]: 1.21 % area
CL (appearance) [4, 10]: A↓
assay [4, 10]: [98.91]
% DP (total degradation products) [4, 28]: 1.53 % area
CL (appearance) [4, 28]: A↓*
assay [4, 11]: [96.89]
% DP (total degradation products) ([4]; 2% in 0.5% CMC, 1 day at RT): 0.62 % area
CL (appearance) ([4]; 2% in 0.5% CMC, 1 day at RT): A↓↓
assay ([4]; 2% in 0.5% CMC, 1 day at RT): [79.98]
% DP (total degradation products) [4, 12]: 0.54 % area
assay [4, 12]: [97.54]
% DP (total degradation products) [4, 13]: 0.58 % area
assay [4, 13]: [96.39]
% DP (total degradation products) [4, 14]: 0.54 % area
assay [4, 14]: [96.60]
% DP (total degradation products) [4, 15]: 0.71 % area
CL (appearance) [4, 15]: A↓
assay [4, 15]: [98.39]
stability characteristics, in words [4]: very good stability
Unstressed (% Area) [4]: 99.62% Area
Bulk stability (XRPD) (Solid-state stability; 80° C.): no change
Bulk stability (XRPD) (Solid-state stability; 80° C./75% r.h.): no change
% DP (total degradation products) (Solid-state stability; [16]): 0.84 % area
assay (Solid-state stability; [16]): [99.48]
% DP (total degradation products) (Solid-state stability; [17]): 1.61 % area
assay (Solid-state stability; [17]): [97.07]
% DP (total degradation products) (Solid-state stability; [18]): 1.36 % area
assay (Solid-state stability; [18]): [97.66]
% DP (total degradation products) (Solid-state stability; [19]): 0.82 % area
assay (Solid-state stability; [19]): [100.4]
% DP (total degradation products) [5, 20]: 1.2 % area
% DS (drug substance) [5, 20]: 98.8 % area
% DP (total degradation products) [5, 21]: 1.3 % area
% DS (drug substance) [5, 21]: 98.7 % area
% DP (total degradation products) [5, 22]: 1.3 % area
% DS (drug substance) [5, 22]: 98.7 % area
% DP (total degradation products) [5, 23]: 1.3 % area
% DS (drug substance) [5, 23]: 98.7 % area
% DP (total degradation products) [5, 24]: 1.3 % area
% DS (drug substance) [5, 24]: 98.7 % area
% DP (total degradation products) [5, 25]: 1.3 % area
% DS (drug substance) [5, 25]: 98.7 % area
% DP (total degradation products) [5, 26]: 1.3 % area
% DS (drug substance) [5, 26]: 98.7 % area
% DP (total degradation products) [5, 27]: 1.3 % area
% DS (drug substance) [5, 27]: 98.7 % area
% DP (total degradation products) ([5]; Standard, freshly prepared): 0.6 % area
% DS (drug substance) ([5]; Standard, freshly prepared): 99.4 % area
stability with all excipient mixtures tested, in words [5]: very good stability
pH of saturated solution [6]: 5.57
Compound: 2:1 L-tartarate salt of N-hydroxy-3-[4-[[[2-(2-methyl-1H-indol-3-yl)ethyl]amino]methyl]phenyl]-2E-2-propenamide
